Source: patent EP1043020A1, “MEDICINAL COMPOSITION FOR PERCUTANEOUS ADMINISTRATION” (priority 1997, dated 1999)
Like-named read-outs stand apart in the source and are kept apart here.

Legend:
[1] = not given; remark: listed apart in the source
[2] = in vitro skin permeability test in pig; type: in vitro ADME, Yucatan miniature pig

CC(=N)N1CC[C@H](Oc2ccc([C@H](Cc3ccc4ccc(C(=N)N)cc4c3)C(=O)O)cc2)C1.Cl.O.O.O.O.O [compound A, (2S)-2-[4-[((3S)-1-acetimidoyl-3-pyrrolidinyl)oxy]phenyl]-3-(7-amidino-2-naphthyl)propionic acid hydrochloride pentahydrate]
Q48 (cumulative skin permeation amount of compound A per unit area for 48 hours) (human skin (2): horny, epidermal, dermal and some fat layers, approximately 1 mm, freeze-stored, thawed, fat removed, donor: compound A 50 mg/mL with enhancer, mean ± S.E., n=2 or 3): (2) 3 ± 1 µg/cm^2
Percutaneous absorption enhancing effect (human skin (2), ratio of Q48 of compound A with enhancer to that without enhancer (3 ± 1)): 1.0
Percutaneous absorption enhancing effect [1]: 1.0
Q24 (cumulative skin permeation amount of compound A per unit area for 24 hours) [1]: 709.05 ± 76.18 µg/cm^2
Percutaneous absorption enhancing effect [2]: 1.0
